Measurements from ChEMBL document CHEMBL1137809, “Antifungal activity of benzoic acid derivatives from Piper lanceaefolium” (2002).
≈ marks a conversion by molar mass, not a printed value. Calls of active or inactive are those of the source. No cut-off for these calls is given here.

Key:
[1] = system: Candida albicans; assay: Antifungal activity against Candida albicans after 24 hrs by broth dilution assay; format: functional
[2] = system: Cladosporium cucumerinum; assay: Antifungal activity against Cladosporium cucumerinum at 5 ug by bioautographic TLC test; format: functional, organism-based

MIC [1]	SMILES	Activity [1]	Activity [2]
100 µg/mL (≈ 400 µM)	COC(=O)c1cc(O)c(O)c(C(=O)C=C(C)C)c1 [LANCEAEFOLIC ACID METHYL ESTER]	–	–
–	CC1(C)CC(=O)c2cc(C(=O)O)cc(O)c2O1	inactive	–
–	COC(=O)c1cc(O)c2c(c1)C(=O)CC(C)(C)O2	inactive	–
–	CC(C)=CC(=O)c1cc(C(=O)O)ccc1O	inactive	inactive
–	CC(C)=CC(=O)c1cc(C(=O)O)cc(O)c1O	inactive	–
